Results published in patent publication US20260125645A1, “METHODS AND PHARMACOLOGICAL AGENTS FOR INCREASING EXPANSION, ENGRAFTMENT OR IMMUNE OUTPUT OF HUMAN HEMATOPOIETIC STEM CELLS IN TRANSPLANTATION AND DISEASE SETTINGS” (VALORISATION HSJ, LIMITED PARTNERSHIP, priority 2022, published 2026).

Experiments:
Cord-blood CD34^+ cells = test: Ex vivo expansion of the CD34+ population from cord-blood CD34+ cells, counted by flow cytometry; assay type: cell-based, human; conditions: for expansion in CD34^+ population: UM171 40 nM, 10 days, SCF/TPO/FLT-3L StemSpan SFEM II
Description: Cord-blood CD34^+ cells were cultured under manual fed-batch (FB) or modified air-liquid interface (ALI) conditions for 10 days. Cells were cultured in cytokine-containing (SCF, TPO, FLT-3L) serum-free media (StemSpan™ SFEM II) where UM171 (40 nM) was added. CD34^+ cells total number was assessed by flow cytometry using […] beads (BD).
The progeny of 7,500 cord-blood CD34^+ cells was cultured under manual fed-batch (FB) conditions for 6 days and injected in irradiated adult NSG mice. Cells were cultured in cytokine-containing (SCF, TPO, FLT-3L) serum-free media (StemSpan SFEM II) where UM729 (500 nM) or a HTR1F-specific agonist LY573144 (250 nM final concentration) was added. The progeny of an equal number of CD34^+ cells cultured in the same conditions but without UM729 or LY573144 from the same source was used to determine baseline expansion (threshold indicated by the dotted line) and engraftment. Expansion fold, compared to untreated condition, of the CD34^+ population after 6 days of ex vivo culture is shown in the left panel. Human immune reconstitution was monitored in peripheral blood (middle panel) and bone marrow (right panel) at week 25 post-transplantation as described above. Mean percentage of human CD45 cell engraftment for 2 mice per condition is shown.
An experimental setup was designed where oxygen exchange in the media would be maximized, while adopting the principles of fed-batch cultures (FB) in which medium is renewed and in sufficient quantity to provide nutrients while diluting cell waste. […] In doing so, the maximum of cells was placed directly at the air-liquid interface so that gas exchanges are more efficient. Briefly, HSC were enriched based on CD34 expression marker, from cord-blood units using the Miltenyi CD34 MicroBead Kit UltraPure according to manufacturer's instruction. Purity was determined by flow cytometry using monoclonal CD34-PE antibodies (Clone 581, BD Pharmingen, 555822). […]
Using this culture method, the expansion of the stem cell population (defined as CD34^+ cells) in the culture wells after 10 days was first assessed. […]

[1] = tested on: cord-blood CD34^+ cells (HSC); test: Human immune engraftment (% hCD45) in irradiated NSG mice injected with the progeny of ex vivo cultured cord-blood CD34+ cells
Description: The progeny of 7,500 cord-blood CD34+ cells was cultured under modified air-liquid interface (ALI) conditions for 10 days and injected in irradiated adult NSG mice. Cells were cultured in cytokine-containing (SCF, TPO, FLT-3L) serum-free media (StemSpan™ SFEM, LDL) containing UM729 (40 nM) with or without the addition of aryl hydrocarbon receptor (AhR) receptor antagonist CH-223191 (1 μM). Human immune reconstitution, expressed by the percentage of human CD45 (hCD45) over total CD45, was monitored in peripheral blood after 7, 14 and 25 weeks post-transplantation by flow cytometry. Mean percentage of human CD45 cell engraftment for 2 mice per condition is shown. […]
Since the ultimate aim is to improve the expansion of engraftable human HSC, the validation methods largely rely on the measurement of immune reconstitution, both short-term and long-term, after transplantation in a humanized mice model. Briefly, NSG mice (Jackson Laboratories, strain 005557) were sublethally irradiated at 2Gy 4 to 24 hours prior to CD34^+ cells intravenous (IV) injection. All harvested cells from 1 culture well were injected into one mouse. Wells from all conditions started with equal numbers of CD34^+ cells from the same source/donor. Therefore, all the progeny of a culture setting was injected into mice. Peripheral blood of humanized mice was harvested every 5 weeks, and human engraftment and immune reconstitution were analyzed by flow cytometry. The earliest point where human engraftment in mice was measured was after 5 weeks and the latest after 35 weeks. The impact of the ALI culture system on HSC engraftment capacity was assessed using base media purchased from STEMCELL Technologies (StemSpan SFEM). A dramatic effect of the ALI methodology on the engraftment of cord-blood HSC was observed relative to the published manual fed-batch culture methodology^4, which includes SCF, TPO, FLT3L and UM171 (FIG. 4).

[2] = tested on: human CB CD34+ (HSC engraftment); test: In vivo administration of HTR1F agonist to NSG mice humanized with uncultured cord-blood CD34+ cells; human chimerism by flow cytometry; conditions: 0.3 mg (10 mg/kg) intraperitoneally at 6 h, 24 h, 48 h
Description: 38,000 human CB CD34+ were injected intravenously into irradiated NSG mice (n=8, 16 hrs after irradiation). Starting from 6 hours post-transplantation, half of the mice (n=4) received, by intraperitoneal injection, 0.3 mg of Lasmiditan diluted in 0.02% DMSO in PBS (drug), for a total of 4 doses in regular intervals (6 h, 24 h, 48 h and 72 h) after human HSC injection. The second half (control) received I.P. injection of vehicle (0.02% DMSO in PBS) (n=4; vehicle). Human chimerism was assessed on peripheral blood until 19 weeks post-transplantation as described above, after which time mice were sacrificed and spleen and bone marrow were analyzed. SEM are depicted.
Lasmiditan, purchased from AdooQ Bioscience (product number A14198), was dissolved in DMSO and ethanol solution. […] Purity and viability were assessed by flow cytometry using the following staining: CD34-APC (Biolegend 343510), CD19-PE (Biolegend, 302208), CD3-PE-Cy7 (Biolegend, 344816), CD45-APC-Cy7 (Biolegend, 368516), 7-AAD (BD Biosciences, 559925), 1 μL AnnV-FITC (Biolegend, 640906). […] The dose was determined based on previous work with LY344864 (used ex vivo above, FIG. 10) in kidney injury recovery studies^16 and is consistent with the dosage of Reyvow® (Lasmiditan) for the treatment of migraine. […]

[3] = progeny of FB culture with LY573144 250 nM for 6 days, 25 weeks after injection

With `CN1CCC(C(=O)c2cccc(NC(=O)c3c(F)cc(F)cc3F)n2)CC1` [LY573144, 2,4,6-Trifluoro-N-[6-[(1-methyl-4-piperidinyl)carbonyl]-2-pyridinyl]benzamide] as the compound, how does the “expansion of the CD34^+ population compared to untreated condition” value (Cord-blood CD34^+ cells; LY573144 250 nM, FB culture, 6 days) read?
The value was “two-fold”.

And the “percentage of hCD45^+ cells in the blood” value [1, 3]?
Its value is “higher percentages”.

What about the “percentage of hCD45^+ cells in the bone marrow” value [1, 3] of the same compound?
The value was “higher percentages”.

And the “presence of human immune cells (hCD45^+) in tissues of treated animals” value ([2]; 72 h, analysed up to 19 weeks)?
Its value is “found in blood, spleen and bone marrow”.

And the “reconstitution of the immune compartment (human chimerism)” value ([2]; 72 h after 38,000 CD34+ cells, followed to 19 weeks, vs vehicle)?
The value was “more robust reconstitution of the immune compartment”.

Which “peripheral blood engraftment (% hCD45)” value ([1]; LY344864 500 nM in StemSpan SFEM II with SCF/TPO/FLT-3L, 10 days, specifically ALI culture, vs media alone) does the source give for `CN(C)[C@@H]1CCc2[nH]c3ccc(NC(=O)c4ccc(F)cc4)cc3c2C1.Cl` [LY344864, N-[(3R)-3-(Dimethylamino)-2,3,4,9-tetrahydro-1H-carbazol-6-yl]-4-fluorobenzamide hydrochloride] here?
The value was “greatly improved the peripheral blood engraftment”.

For `Cc1ccccc1N=Nc1ccc(NC(=O)c2ccnn2C)c(C)c1` [CH-223191], which “engraftment capacity of cultured HSC (% hCD45 in peripheral blood)” value ([1]; CH-223191 1 μM added to ALI culture containing UM729, 10 days, blood at 7, 14 and 25 weeks, vs without CH-223191) is on record?
The value was “did not further increase the engraftment capacity”.

Which results are given for `Cn1nnc(-c2ccc3c(c2)[nH]c2nc(Cc4ccccc4)nc(NC4CCC(N)CC4)c23)n1` (stereo not shown) [UM171]?
expansion in CD34^+ population (Cord-blood CD34^+ cells; ALI culture): ~55 fold; expansion in CD34^+ population (Cord-blood CD34^+ cells; fed-batch (FB) culture): ~55 fold

With `N[C@@H](Cc1cc(I)c(Oc2ccc(O)c(I)c2)c(I)c1)C(=O)O` [T3, triiodothyronine] as the compound, how does the “engraftment of HSC in humanized mice (% hCD45+ lymphocytes in peripheral blood)” value ([1]; T3 45 ng/mL in SCF/TPO/FLT3L StemSpan SFEM containing UM171, FB culture 10 days, vs UM171 alone or with CH-223191) read?
The value was “increased the engraftment of HSC”.
